# Measurements published in the supplement of paper PMC10307832.
# How the values were obtained:
# Assay in all cases: relative viability (nuclei count vs DMSO), 5 days (fraction); higher = more cells survive
# [1] = compound: C1CSC2=C(C(=O)N1)SC3=C2C=C(C=C3)O [kb NB 142-70] + C[C@@H](Oc1cc(-c2cnn(C3CCNCC3)c2)cnc1N)c1c(Cl)ccc(F)c1Cl [Crizotinib] (partner 1 µM)
# Outline: (§1)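 For relative viability, nuclei counts in treated wells were divided by those in vehicle wells. Lung cancer cell lines had been pin-tool dosed in 1536-well plates the day after seeding and cultured for 5 days, then fixed and stained in one step (final 0.05% Triton X-100, 1% formaldehyde, 1 ug/ml Hoechst) and imaged at 4×. Doses were one drug alone or a fixed anchor-drug dose plus five library-drug doses (not always all listed) in √10 steps, and values are duplicate-plate medians.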
# [2] = compound: NCC(=O)Nc1ccc(-n2nc(C(F)(F)F)cc2-c2ccc3c(ccc4ccccc43)c2)cc1 + O=C(CCCCCCC(=O)Nc1ccccc1)NO [Vorinostat] (partner 1 µM)
# Outline: as §1
# [3] = compound: C1CSC2=C(C(=O)N1)SC3=C2C=C(C=C3)O [kb NB 142-70] + Nc1ncn([C@H]2C[C@H](O)[C@@H](CO)O2)c(=O)n1 [Decitabine] (partner 2 µM)
# Outline: as §1
# [4] = compound: NCC(=O)Nc1ccc(-n2nc(C(F)(F)F)cc2-c2ccc3c(ccc4ccccc43)c2)cc1 + Cc1cc(Nc2cc(N3CCN(C)CC3)nc(Sc3ccc(NC(=O)C4CC4)cc3)n2)n[nH]1 [Tozasertib] (partner 0.1 µM)
# Outline: as §1
# [5] = compound: C1CSC2=C(C(=O)N1)SC3=C2C=C(C=C3)O [kb NB 142-70] + CC(=O)Nc1cccc(-n2c(=O)n(C3CC3)c(=O)c3c(Nc4ccc(I)cc4F)n(C)c(=O)c(C)c32)c1 [Trametinib] (partner 0.02 µM)
# Outline: as §1
Cell Line,relative viability ([1]; first compound 0.1 µM),relative viability ([1]; first compound 1 µM),relative viability ([1]; first compound 3.162 µM),relative viability ([2]; first compound 0.02 µM),relative viability ([2]; first compound 0.06325 µM),relative viability ([2]; first compound 0.2 µM),relative viability ([2]; first compound 0.6325 µM),relative viability ([2]; first compound 2 µM),relative viability ([3]; first compound 0.1 µM),relative viability ([3]; first compound 1 µM),relative viability ([3]; first compound 3.162 µM),relative viability ([4]; first compound 0.02 µM),relative viability ([4]; first compound 0.06325 µM),relative viability ([4]; first compound 0.2 µM),relative viability ([4]; first compound 0.6325 µM),relative viability ([4]; first compound 2 µM),relative viability ([5]; first compound 0.1 µM),relative viability ([5]; first compound 1 µM),relative viability ([5]; first compound 3.162 µM)
NCI-H322M,1,1.1,1,0.993,0.957,0.836,0.927,0.984,0.675,0.72,0.616,0.54,0.461,0.517,0.491,0.517,0.51,0.525,0.598
NCI-H647,1.08,1.27,1.12,0.409,0.539,0.578,0.411,0.486,0.383,0.477,0.36,0.286,0.314,0.425,0.233,0.254,0.505,0.51,0.597
SK-MES-1,1.01,1.02,0.72,1.06,1.07,1.17,1.02,1.23,0.466,0.338,0.22,0.939,1,0.914,0.866,0.856,0.547,0.631,0.714
NCI-H2170,1.21,1.22,1.04,0.9,0.926,0.849,0.826,0.823,0.501,0.496,0.369,0.743,0.726,0.779,0.799,0.771,0.878,0.958,0.888
NCI-H2085,0.754,0.814,0.663,0.703,0.824,0.728,0.877,0.849,0.55,0.522,0.448,0.697,0.853,0.836,0.878,0.807,0.515,0.542,0.325
SW 1573,0.832,0.815,0.526,0.647,0.749,0.831,0.703,0.661,0.526,0.378,0.26,0.244,0.15,0.272,0.228,0.182,0.541,0.475,0.418
NCI-H727,0.752,1.06,0.592,1.28,0.908,1.28,1.21,1.05,0.915,0.868,0.768,0.648,0.664,0.588,0.502,0.711,0.419,0.367,0.316
NCI-H441,0.958,0.64,0.433,1.02,0.705,0.987,0.72,0.866,0.259,0.213,0.162,0.642,0.522,0.747,0.603,0.697,0.473,0.383,0.287
LOU-NH91,0.75,0.732,0.644,0.895,0.977,0.917,0.872,1.01,0.83,0.854,0.61,0.621,0.716,0.649,0.663,0.797,0.754,0.785,0.657
NCI-H3122,0.268,0.242,0.192,1.03,0.997,0.995,0.942,0.797,0.487,0.371,0.419,0.412,0.431,0.391,0.366,0.236,0.229,0.225,0.274
NCI-H460,0.766,0.801,0.326,0.707,0.662,0.687,0.737,0.661,0.538,0.606,0.354,0.397,0.591,0.485,0.47,0.394,0.205,0.192,0.228
NCI-H650,0.715,0.683,0.449,0.469,0.424,1.29,0.369,0.361,0.309,0.283,0.267,0.691,0.754,0.761,0.676,0.631,0.939,1.22,0.895
NCI-H661,1.05,0.969,1.22,0.811,0.817,0.774,0.821,0.784,0.614,0.588,0.496,0.37,0.343,0.356,0.362,0.341,0.532,0.578,0.567
NCI-H1734,0.68,0.652,0.383,0.773,0.848,0.827,0.773,0.817,0.525,0.46,0.348,0.28,0.271,0.276,0.286,0.254,0.717,0.633,0.531
LXF-289,0.776,0.796,0.744,0.737,0.91,0.777,0.731,0.787,0.392,0.369,0.365,0.233,0.196,0.202,0.214,0.197,0.668,0.662,0.69
H3255,0.97,0.776,0.958,0.766,0.84,0.872,0.809,0.722,0.623,0.591,0.629,0.657,0.511,0.749,0.686,0.713,0.585,0.602,0.593
201T,0.989,1.07,1.03,0.926,0.968,0.957,0.974,0.935,0.892,0.867,0.825,0.943,0.958,1.04,0.924,0.928,0.687,0.727,0.752
